Measured values: patent publication US20250381110A1, “SKIN CARE COMPOSITION AND METHOD OF USING THE SAME” (THE PROCTER & GAMBLE COMPANY, priority 2024, published 2025)
Like-named read-outs stand apart in the source and are kept apart here. Where a SMILES comes first, the peptide text is derived from it. Bridges are numbered along the chain shown (N, C = ends). [ ]: non-standard residue; d: D form. The star is where a group is joined. Ileψ(thiazoline)Cys = CC[C@H](C)[C@H](N)C1=N[C@H](C(=O)*)CS1; dOrn = NCCC[C@@H](N)C(=O)O

Tested on: p62-dependent mitophagy
Experiment: Luciferase-p62 assay (Fluc-p62 clearance) in mouse embryonic fibroblasts
Assay type: cell-based
Method: To identify p62-dependent materials which increase mitophagy, a Luciferase-p62 Assay was established. This method provides an approach to measure the ability of a material to modulate p62-dependent mitophagy by using an inducible firefly luciferase-p62 (Fluc-p62) reporter cell system. In this assay, p62 levels are driven by doxycycline treatment. After levels increased, expression of Fluc-p62 is turned off by removal of doxycycline, materials are then added and assessed for how they affect clearance of Fluc-p62 protein, which is proportionate to cellular mitophagy rates (Kelly et al.). The negative control is doxycycline induced Luc-p62 in the absence of compound or bioactive material treatment and in the presence of vehicle (DMSO).
Test materials including bioactive materials were screened in mouse embryonic fibroblasts (MEFs, Harada et al.) expressing the TET-inducible p62-fluc construct as previously described (Brown et al.). […] Gibson assembly was used to insert firefly luciferase (Fluc) and p62 into the pCW57.1 backbone. Fluc, p62, and pCW57.1 were polymerase chain reaction (PCR) amplified using pfu polymerase (Life technologies) and Gibson assembly primers with 20 base pair (bp) overhangs. PCR products were separated by agarose gel electrophoreses, and fragments excised and purified before use in DNA assembly reaction with NEBuilder HiFi DNA Assembly kit (New England Biolabs). After the assembly, the reaction mix was transformed into NEB3040 Stable Competent Escherichia coli (New England Biolabs). After 24 hours growth at 31 degrees Celsius the plasmid was extracted using QIAprep Spin Miniprep kit (Qiagen). The plasmid was sequenced to confirm correct insertion of Fluc-p62. To generate MEFs stably expressing doxycycline inducible Fluc-p62, HEK293FT cells were transfected with Fluc-p62-pCW57.1 and the ViraPower Packaging Mix (Invitrogen) to produce lentivirus. MEFs were transduced with the obtained lentiviral stock following followed by selection with 1 microgram per milliliter puromycin.Fluc-p62expressing MEFs were maintained in DMEM supplemented with 10 percent fetal bovine serum (FBS), 100 units per milliliter penicillin/streptomycin, and 2 millimolar L-glutamine in a humidified atmosphere containing 5 percent carbon dioxide at 37 degrees Celsius. Cells were plated into white 96 well plates (2,000 cells per well with 100 microliters media) and allowed to settle for 24 hours. […] Subsequently, cells were treated with test materials for 48 hours in normal growth medium and analysed using ONE-Glo™+Tox Luciferase Reporter and Cell Viability Assay (Promega) by following the manufacturer's protocol.
Test compositions and control compositions were prepared as described above in the Luciferase-p62 assay (Method 3) and tested accordingly. The compounds used in this example, as examples of bioactive materials, were from the APExBIO DiscoveryProbe™ Natural Product Library Plus (Houston, TX) and evaluated at equivalent concentrations (10 μM).
Data are additionally calculated as percentage of activity relative to rapamycin, a benchmark control compound tested in the same experiment.

[1] = Luciferase-p62 assay, mouse embryonic fibroblasts (MEFs), compounds at 10 μM
[2] = percentage of Luciferase-p62 clearance relative to baseline (mean luminescence in the absence of doxycycline induction), MEFs, 10 μM
[3] = percentage of activity relative to rapamycin tested in the same experiment at the same concentration, MEFs, 10 μM

SMILES: C[C@]12CCC(=O)C=C1CC[C@@H]1[C@@H]2[C@@H](O)C[C@@]2(C)[C@H]1CC[C@]2(O)C(=O)COC(=O)CCC(=O)[O-].[Na+]
- Mean Luminescence [1]: 927.92
- % Activity over baseline [2]: 42.65%
- % Activity relative to Rapamycin [3]: 76.85%

SMILES: Nc1nc(=O)c2c([nH]1)NCC(CNc1ccc(C(=O)N[C@@H](CCC(=O)O)C(=O)O)cc1)N2C=O (mixture of isomers) [Folinic acid]
- Mean Luminescence [1]: 762.92
- % Activity over baseline [2]: 52.85%
- % Activity relative to Rapamycin [3]: 95.22%

SMILES: O=C1O[C@H]2[C@@H]3OC(=O)c4cc(O)c(O)c(O)c4-c4c(O)c(O)c5oc(=O)c6c(c(O)c(O)c7oc(=O)c4c5c76)-c4c(cc(O)c(O)c4O)C(=O)OC[C@H]3OC(O)[C@@H]2OC(=O)c2cc(O)c(O)c(O)c2-c2c1cc(O)c(O)c2O (mixture of isomers) [Punicalagin]
- Mean Luminescence [1]: 782.52
- % Activity over baseline [2]: 51.64%
- % Activity relative to Rapamycin [3]: 93.04%

SMILES: C[N+](C)(C)CC(O)CC(=O)O.[Cl-] (racemic) [DL-Carnitine HCl]
- Mean Luminescence [1]: 902.01
- % Activity over baseline [2]: 44.26%
- % Activity relative to Rapamycin [3]: 79.74%

SMILES: CC(C)(CO)C(O)C(=O)NCCCO (racemic) [DL-Panthenol]
- Mean Luminescence [1]: 991.50
- % Activity over baseline [2]: 38.72%
- % Activity relative to Rapamycin [3]: 69.77%

SMILES: CSCCC(NC(C)=O)C(=O)O (racemic) [N-Acetyl-DL-methionine]
- Mean Luminescence [1]: 973.29
- % Activity over baseline [2]: 39.85%
- % Activity relative to Rapamycin [3]: 71.80%

SMILES: O=C1C=CC(=O)C=C1 [1,4-Benzoquinone]
- Mean Luminescence [1]: 422.02
- % Activity over baseline [2]: 73.92%
- % Activity relative to Rapamycin [3]: 133.18%

SMILES: Cl.Cl.NCCCCN [1,4-Diaminobutane dihydrochloride]
- Mean Luminescence: 902.42
- % Activity over baseline (10 µM): 44.23%
- % Activity relative to Rapamycin (10 µM): 79.69%

SMILES: O=c1ccn2c(n1)O[C@H]1[C@H](O)[C@@H](CO)O[C@H]12 [2,2′-Cyclouridine]
- Mean Luminescence [1]: 935.30
- % Activity over baseline [2]: 42.20%
- % Activity relative to Rapamycin [3]: 76.03%

SMILES: CC(=O)C(C)=NO [2,3-Butanedione-2-monoxime]
- Mean Luminescence [1]: 762.32
- % Activity over baseline [2]: 52.89%
- % Activity relative to Rapamycin [3]: 95.29%

SMILES: Cc1cnc(C)cn1 [2,5-Dimethyl pyrazine]
- Mean Luminescence [1]: 842.32
- % Activity over baseline [2]: 47.94%
- % Activity relative to Rapamycin [3]: 86.38%

SMILES: CC(=O)c1cc(O)ccc1O [2′,5′-Dihydroxyacetophenone]
- Mean Luminescence [1]: 709.63
- % Activity over baseline [2]: 56.14%
- % Activity relative to Rapamycin [3]: 101.16%

SMILES: O=C(O)Cc1cccc(O)c1 [3-Hydroxyphenylacetic acid]
- Mean Luminescence [1]: 888.33
- % Activity over baseline [2]: 45.10%
- % Activity relative to Rapamycin [3]: 81.26%

SMILES: CC(CC(=O)O)CC(=O)O [3-Methylglutaric acid]
- Mean Luminescence [1]: 818.33
- % Activity over baseline [2]: 49.43%
- % Activity relative to Rapamycin [3]: 89.05%

SMILES: COc1ccc(CC(=O)O)cc1 [4-Methoxyphenylacetic acid]
- Mean Luminescence [1]: 929.33
- % Activity over baseline [2]: 42.57%
- % Activity relative to Rapamycin [3]: 76.69%

SMILES: C=CCCC(=O)O [4-Pentenoic acid]
- Mean Luminescence [1]: 936.28
- % Activity over baseline [2]: 42.14%
- % Activity relative to Rapamycin [3]: 75.92%

SMILES: C=C1CCC2C(C=C(C)C(=O)C3(OC(C)=O)CC(C)C(OC(=O)c4ccccc4)C3C1OC(C)=O)C2(C)C (centres unmarked) [5,15-Diacetyl-3-benzoyllathyrol]
- Mean Luminescence [1]: 927.14
- % Activity over baseline [2]: 42.70%
- % Activity relative to Rapamycin [3]: 76.94%

SMILES: C=CCNC1=C2C[C@@H](C)C[C@H](OC)[C@H](O)[C@@H](C)/C=C(\C)[C@H](OC(N)=O)[C@@H](OC)/C=C\C=C(/C)C(=O)NC(=CC1=O)C2=O [17-AAG (KOS953)]
- Mean Luminescence [1]: 299.07
- % Activity over baseline [2]: 81.52%
- % Activity relative to Rapamycin [3]: 146.87%

SMILES: C=C(C)[C@H]1CC=C(C)C(=O)C1 [(S)-(+)-Carvone]
- Mean Luminescence [1]: 802.50
- % Activity over baseline [2]: 50.40%
- % Activity relative to Rapamycin [3]: 90.82%

SMILES: CC1(C)C2CCC1(C)C(O)C2 (centres unmarked) [(—)-Borneol]
- Mean Luminescence [1]: 967.20
- % Activity over baseline [2]: 40.23%
- % Activity relative to Rapamycin [3]: 72.48%

SMILES: COc1ccc(/C=C/C(=O)/C=C(O)/C=C/c2ccc(OC)c(OC)c2)cc1OC [ASC-J9]
- Mean Luminescence [1]: 664.12
- % Activity over baseline [2]: 58.96%
- % Activity relative to Rapamycin [3]: 106.23%

SMILES: Nc1ncnc2c1ncn2[C@@H]1O[C@H](COP(=O)(O)OP(=O)(O)OP(=O)(O)O)[C@@H](O)[C@H]1O [ATP]
- Mean Luminescence [1]: 875.39
- % Activity over baseline [2]: 45.90%
- % Activity relative to Rapamycin [3]: 82.70%

SMILES: COc1cc(C=O)ccc1OC(C)=O [Acetylvanillin]
- Mean Luminescence [1]: 979.34
- % Activity over baseline [2]: 39.48%
- % Activity relative to Rapamycin [3]: 71.13%

SMILES: Cc1cnc(C(=O)O)c[n+]1[O-] [Acipimox]
- Mean Luminescence [1]: 922.85
- % Activity over baseline [2]: 42.97%
- % Activity relative to Rapamycin [3]: 77.42%

SMILES: COc1cc(C)c(/C=C/C(C)=C/C=C/C(C)=C/C(=O)O)c(C)c1C [Acitretin]
- Mean Luminescence [1]: 883.02
- % Activity over baseline [2]: 45.43%
- % Activity relative to Rapamycin [3]: 81.85%

SMILES: Nc1ncnc2c1ncn2[C@@H]1O[C@H](COP(=O)(O)O)[C@@H](O)[C@H]1O [Adenosine 5-monophosphate]
- Mean Luminescence [1]: 890.00
- % Activity over baseline [2]: 45.00%
- % Activity relative to Rapamycin [3]: 81.07%

SMILES: C=C1CC[C@@H]2[C@](C)(CO)[C@H](O)CC[C@@]2(C)[C@@H]1C/C=C1/C(=O)OC[C@H]1O [Andrographolide]
- Mean Luminescence [1]: 818.97
- % Activity over baseline [2]: 49.39%
- % Activity relative to Rapamycin [3]: 88.98%

SMILES: O=c1ccc2ccc3occc3c2o1 [Angelicin]
- Mean Luminescence [1]: 910.28
- % Activity over baseline [2]: 43.74%
- % Activity relative to Rapamycin [3]: 78.82%

SMILES: COc1cc(C(C)=O)ccc1O [Apocynin]
- Mean Luminescence [1]: 973.30
- % Activity over baseline [2]: 39.85%
- % Activity relative to Rapamycin [3]: 71.80%

SMILES: CO[C@H]1O[C@@H]2O[C@@]3(C)CC[C@H]4[C@H](C)CC[C@@H]([C@H]1C)[C@@]24OO3 [Artemether (SM-224)]
- Mean Luminescence [1]: 596.56
- % Activity over baseline [2]: 63.13%
- % Activity relative to Rapamycin [3]: 113.75%

SMILES: C[C@@H]1CC[C@H]2[C@@H](C)C(=O)O[C@@H]3O[C@@]4(C)CC[C@@H]1[C@]32OO4 [Artemisinine]
- % Activity over baseline [2]: 39.29%

SMILES: CC[C@@H]1/C=C(\C)C[C@H](C)C[C@H](OC)[C@H]2O[C@@](O)(C(=O)C(=O)N3CCCC[C@H]3C(=O)O[C@H](/C(C)=C/[C@@H]3CC[C@@H](O)[C@H](OC)C3)[C@H](C)[C@@H](O)CC1=O)[C@H](C)C[C@@H]2OC [Ascomycin(FK 520)]
- Mean Luminescence [1]: 640.39
- % Activity over baseline [2]: 60.42%
- % Activity relative to Rapamycin [3]: 108.87%

SMILES: CC1(C)CC[C@]2(C(=O)O[C@@H]3O[C@H](CO[C@@H]4O[C@H](CO)[C@@H](O)[C@H](O)[C@H]4O)[C@@H](O)[C@H](O)[C@H]3O)CC[C@]3(C)C(=CC[C@@H]4[C@@]5(C)CC[C@H](O[C@@H]6OC[C@H](O)[C@H](O)[C@H]6O)[C@@](C)(CO)[C@@H]5CC[C@]43C)[C@@H]2C1 [Asperosaponin VI]
- Mean Luminescence [1]: 955.83
- % Activity over baseline [2]: 40.93%
- % Activity relative to Rapamycin [3]: 73.74%

SMILES: CC[C@H](C)[C@H](N)C1=N[C@H](C(=O)N[C@@H](CC(C)C)C(=O)N[C@H](CCC(=O)O)C(=O)N[C@H](C(=O)N[C@H]2CCCCNC(=O)[C@H](CC(N)=O)NC(=O)[C@@H](CC(=O)O)NC(=O)[C@H](Cc3cnc[nH]3)NC(=O)[C@@H](Cc3ccccc3)NC(=O)[C@H]([C@@H](C)CC)NC(=O)[C@@H](CCCN)NC2=O)[C@@H](C)CC)CS1 [Bacitracin] ({Ileψ(thiazoline)Cys}-L[dE]IK[dOrn]I[dF]H[dD]N; lactam 4-C)
- Mean Luminescence [1]: 860.05
- % Activity over baseline [2]: 46.85%
- % Activity relative to Rapamycin [3]: 84.41%

SMILES: COc1nc2ccc(Br)cc2cc1[C@@H](c1ccccc1)[C@@](O)(CCN(C)C)c1cccc2ccccc12 [Bedaquiline]
- Mean Luminescence [1]: 802.99
